The data set can be described thus: pH stability of the ibuprofen amine salt. It counts as physicochemical. To be noted: pH range in which the salt is stable, after tested.

On to `CC(C)Cc1ccc(C(C)C(=O)O)cc1.NC(CO)(CO)CO` (stereo not shown) [ibuprofen amine salt], for which the stability entry is “stable between pH 4 and 9”.
